{
  "source": "patent US9359347B2",
  "about": "“Inhibitors of Akt/PKB with anti-tumor activity” (University of South Florida, priority 2007, dated 2016)",
  "key": {"[1]": {"test_system": "MDA-MB-468", "experiment": "Apoptosis analysis (annexin V and PI, FACScan), MDA-MB-468", "format": "cell-based, human", "conditions": "MDA-MB-468, annexin V and PI", "protocol": "(§1) The blots were reprobed with anti-actin antibody (bottom panel). FIGS. 4B and 4C are cell proliferation assays in which indicated cell lines were treated with different doses of API-1 for 24 hours and then analyzed with MTT assay. FIGS. 4D-4G show an apoptosis analysis in which cells were treated with API-1 and stained with annexin V and PI and analyzed by FACScan.\n(§2) In vitro kinase was performed as previously described (Jiang et al. 2000). Cell survival was assayed with MTT (Sigma). Apoptosis was detected with annexin V (BD Biosciences), which was performed according to manufacture's instruction. Recombinant Akt and PDK1 were purchased from Upstate Biotechnology Inc.\n(§3) Akt is a major pro-growth and pro-survival pathway."}, "[2]": {"test_system": "OVCAR5", "experiment": "Cell proliferation MTT assay, OVCAR5", "format": "cell-based, human", "conditions": "OVCAR5, 24 hours", "protocol": "as §1, §2, §3"}, "[3]": {"test_system": "OVCAR3 tumors", "experiment": "Nude mouse tumor xenograft model, OVCAR3", "format": "in vivo, nude mice", "conditions": "10 mg/kg/day i.p.", "excerpt": "(§4) Tumor cells were subcutaneously injected into nude mice with low level of Akt cells on right side and elevated level of Akt cells on left side."}, "[4]": {"test_system": "OVACAR3", "experiment": "Apoptosis analysis (annexin V and PI, FACScan), OVACAR3", "format": "cell-based, human", "protocol": "as §1, §2, §3"}, "[5]": {"test_system": "Akt", "experiment": "Immunoblotting of Akt phosphorylation in treated tumor specimens", "format": "in vivo, nude mice", "conditions": "10 mg/kg/day", "excerpt": "Tumor cells were subcutaneously injected into nude mice with low level of Akt cells on right side and elevated level of Akt cells on left side. […] API-1 treated and untreated tumor specimens were lysed and immunoblotted with indicated antibodies."}, "[6]": {"test_system": "MCF7", "experiment": "Cell proliferation MTT assay, MCF7", "format": "cell-based, human", "conditions": "MCF7, 24 hours", "protocol": "as §1, §2, §3"}, "[7]": {"test_system": "MDA-MB-435s cells", "experiment": "Cell proliferation MTT assay, MDA-MB-435s", "format": "cell-based, human", "conditions": "24 hours", "protocol": "as §1, §2, §3"}, "[8]": {"test_system": "PKA", "experiment": "Immunoblotting of PKA phosphorylation in OVCAR3 cells", "format": "cell-based, human", "description": "FIG. 2D is a graph showing the effect of API-1 on PKA, PKC and PDK kinase activity in living cells. OVCAR3 cells were treated with indicated concentration of API-1 for 1 hour. Cells were lysed and immunoblotted with indicated antibodies."}, "[9]": {"test_system": "PANC1 tumors", "experiment": "Nude mouse tumor xenograft model, PANC1", "format": "in vivo, nude mice", "conditions": "10 mg/kg/day i.p.", "excerpt": "as §4"}, "[10]": {"test_system": "Akt", "experiment": "Immunoblotting with anti-phospho-Akt-S473 antibody in OVCAR3 cells", "format": "cell-based, human", "conditions": "3 hours, read-out: IC50, phosphorylation level of Akt (phospho-Akt-S473)", "description": "The cells were treated with API-1 at indicated concentration for 2 hours and subjected to immunoblotting analysis with anti-phospho-Akt-S473 antibodies (top panel).\nOVCAR3 cells, which express elevated levels of phosphor-Akt, were treated with different doses of API-1 for 3 hours."}, "[11]": {"experiment": "Tolerability observations in xenograft mice", "format": "in vivo", "conditions": "10 mg/kg/day, data not shown", "protocol": "Tumor cells were harvested, resuspended in PBS, and injected subcutaneous (s.c.) into the right and left flanks (2×10^6 cells/flank) of 8-week-old female nude mice as reported previously (Sun et al. 1999). When tumors reached about 100-150 mm^3, animals were randomized and dosed intraperitoneal (i.p.) with vehicle or drug daily. Control animals received dimethylsulfoxide (DMSO) (20%) vehicle and treated animals were injected with API-1 (10 mg/kg/day) in 20% DMSO.\nBecause API-1 inhibits Akt signaling and induces apoptosis and cell growth arrest in cancer cells with elevated levels of Akt (FIGS. 4A-4G), it was reasoned that the growth of tumors with elevated levels of Akt should be more sensitive to API-1 than that of tumors with low levels of Akt in nude mice. To this end, Akt-overexpressing cells (OVCAR3 and PANC-1) were s.c. implanted into the left flank, and those cell lines that express low levels of Akt (OVCAR5 and COLO357) were s.c. implanted into the right flank of mice. When the tumors reached an average size of about 100-150 mm^3, the animals were randomized and treated i.p. with either vehicle or API-1 (10 mg/kg/day). As illustrated in FIGS. 5A-5J, OVCAR3 and PANC1 tumors treated with vehicle control continued to grow. API-1 inhibited OVCAR3 and PANC1 tumor growth by 70% and 50%, respectively (FIGS. 5C-5F and 5G-5J). In contrast, API-1 had little effect on the growth of OVCAR5 and COLO357 cells in nude mice (FIGS. 5A-5J). At dose 10 mg/kg/day, API-1 had no effects on blood glucose level, body weight, activity and food intake of mice (data not shown)."}, "[12]": {"test_system": "OVCAR3", "experiment": "Cell proliferation MTT assay, OVCAR3", "format": "cell-based, human", "conditions": "OVCAR3, 24 hours", "protocol": "as §1, §2, §3"}, "[13]": {"test_system": "MDA-MB-468", "experiment": "Cell proliferation MTT assay, MDA-MB-468", "format": "cell-based, human", "conditions": "MDA-MB-468, 24 hours", "protocol": "as §1, §2, §3"}, "[14]": {"test_system": "OVCA8", "experiment": "Cell proliferation MTT assay, OVCA8", "format": "cell-based, human", "conditions": "OVCA8, 24 hours", "protocol": "as §1, §2, §3"}, "[15]": {"target": "T1, constitutively active Myc-AKT1-E17K (Homo sapiens, UniProt P31749, E17K)", "T1 sequence (P31749 whole entry E17K)": "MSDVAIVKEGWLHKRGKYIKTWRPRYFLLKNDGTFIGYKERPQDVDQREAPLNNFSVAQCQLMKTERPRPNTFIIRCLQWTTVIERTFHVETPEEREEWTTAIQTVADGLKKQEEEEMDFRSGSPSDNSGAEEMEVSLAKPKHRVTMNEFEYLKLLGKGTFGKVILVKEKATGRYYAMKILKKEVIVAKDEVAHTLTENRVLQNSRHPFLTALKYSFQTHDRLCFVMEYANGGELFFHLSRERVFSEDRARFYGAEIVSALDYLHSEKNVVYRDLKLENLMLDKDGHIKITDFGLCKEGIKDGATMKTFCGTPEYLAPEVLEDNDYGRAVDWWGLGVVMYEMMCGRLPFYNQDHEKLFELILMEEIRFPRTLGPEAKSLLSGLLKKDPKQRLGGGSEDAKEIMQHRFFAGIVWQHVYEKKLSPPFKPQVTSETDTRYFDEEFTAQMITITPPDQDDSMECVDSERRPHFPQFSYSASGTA", "conditions": "Myc-AKT1-E17K transfected HEK 293 cells"}, "[16]": {"target": "T2, wild-type Myc-AKT1 (Homo sapiens, UniProt P31749)", "T2 sequence (P31749 whole entry)": "as the sequence (P31749 whole entry E17K) above, with K17E counted along it", "experiment": "In vitro kinase assay of anti-Myc immunoprecipitates from wild-type Myc-AKT1 transfected HEK293 cells", "conditions": "wild-type Myc-AKT1, HEK293, 30 min then EGF 15 min, Histone H2B substrate", "description": "(§5) Nevertheless, we compared their capability of inhibiting Akt. HEK293 cells were transfected with wild-type Myc-AKT1 (FIGS. 7B and 7C) and constitutively active Myc-AKT1-E17K (FIGS. 7D and 7E). Following 36 h incubation, cells were serum starved overnight. […] Immunoprecipitation was carried out with anti-Myc antibody and the immunoprecipitates were subjected to in vitro kinase assay using Histone H2B as substrate (top). […] The experiments were repeated three times."}, "[17]": {"target": "mTORC2 (Homo sapiens, UniProt P42345)", "experiment": "Interference with mTORC2 complex (FIG. 3D)"}, "[18]": {"target": "T1, constitutively active Myc-AKT1-E17K", "experiment": "In vitro kinase assay of anti-Myc immunoprecipitates from Myc-AKT1-E17K transfected HEK293 cells", "conditions": "HEK293, Histone H2B substrate", "description": "as §5"}, "[19]": {"target": "mTORC1 (Homo sapiens, UniProt P42345)", "experiment": "Interference with mTORC1 complex (FIG. 3D)"}, "[20]": {"test_system": "Akt downstream targets", "experiment": "Phosphorylation of Akt downstream targets (FIG. 3C)", "format": "cell-based"}, "[21]": {"target": "T2, wild-type Myc-AKT1", "conditions": "wild-type Myc-AKT1 transfected HEK 293 cells"}, "[22]": {"target": "T3, Akt (Homo sapiens, UniProt P31749)", "T3 construct": "expressed in transfected cells; host or cells: HeLa", "T3 sequence (P31749 whole entry)": "as the sequence (P31749 whole entry E17K) above, with K17E counted along it", "experiment": "IGF-1 induced plasma membrane translocation of Akt in Myc-AKT1 transfected HeLa cells", "format": "cell-based", "conditions": "Myc-AKT1, 30 min prior to IGF1 for 15 minutes", "protocol": "HeLa cells were transfected on coverslips with Myc-AKT1, serum-starved overnight and then treated with (FIG. 6C) or without (FIG. 6B) AKT-SI1 for 30 min prior to stimulation with IGF1 for 15 minutes. Following fixation, cells were immuno-stained with the anti-Myc monoclonal antibody, followed by a FITC-conjugated secondary antibody to reveal the presence of the epitope-tagged protein in the cytosol or membrane (FIG. 6B). Cells without treatment with AKT-SI1 and IGF1 were used as control (FIG. 6A)."}},
  "data": [
    {"compound": "NC(=O)c1cn(C2OC(CO)C(O)C2O)c2ncnc(N)c2c1=O", "note": "(stereo not shown) [API-1]", "values": [
      {"measurement": "induction of apoptosis", "setting": "[1]", "value": 4.6, "unit": "fold"},
      {"measurement": "inhibition of cell proliferation", "setting": "[2]", "value": "10-30%"},
      {"measurement": "inhibition of tumor growth", "setting": "[3]", "value": 70, "unit": "%"},
      {"measurement": "induction of apoptosis", "setting": "[4]", "value": 9, "unit": "fold"},
      {"measurement": "reduction of phosphorylation levels of Akt in treated tumor samples", "setting": "[5]", "value": "about 70%"},
      {"measurement": "inhibition of cell proliferation", "setting": "[6]", "value": "50-70%"},
      {"measurement": "inhibition of cell proliferation", "setting": "[7]", "value": "10-30%"},
      {"measurement": "phosphorylation levels of PKA", "setting": "[8]", "value": "not inhibited"},
      {"measurement": "inhibition of tumor growth", "setting": "[9]", "value": 50, "unit": "%"},
      {"measurement": "IC50", "setting": "[10]", "value": "~800", "unit": "nM"},
      {"measurement": "activity", "setting": "[11]", "value": "no effects"},
      {"measurement": "blood glucose level", "setting": "[11]", "value": "no effects"},
      {"measurement": "body weight", "setting": "[11]", "value": "no effects"},
      {"measurement": "food intake", "setting": "[11]", "value": "no effects"},
      {"measurement": "inhibition of cell proliferation", "setting": "[12]", "value": "50-70%"},
      {"measurement": "inhibition of cell proliferation", "setting": "[13]", "value": "50-70%"},
      {"measurement": "inhibition of cell proliferation", "setting": "[14]", "value": "50-70%"}
    ]},
    {"compound": "API-1", "values": [
      {"measurement": "phospho-Akt levels (S473)", "setting": "[15]", "value": "inhibit"},
      {"measurement": "inhibition of Akt kinase activity, compared with API-2/TCN", "setting": "[16]", "value": "more potent than API-2/TCN"},
      {"measurement": "interference with mTORC2 complex", "setting": "[17]", "value": "did not interfere"},
      {"measurement": "inhibition of Akt kinase activity, compared with API-2/TCN", "setting": "[18]", "value": "more potent than API-2/TCN"},
      {"measurement": "interference with mTORC1 complex", "setting": "[19]", "value": "did not interfere"},
      {"measurement": "phosphorylation of Akt downstream targets", "setting": "[20]", "value": "inhibited"},
      {"measurement": "phospho-Akt levels (S473)", "setting": "[21]", "value": "inhibit"},
      {"measurement": "IGF-1 induced plasma membrane translocation of Akt", "setting": "[22]", "value": "inhibits"}
    ]}
  ]
}
